Results: patent publication US10457707B2, “Substituted urea depsipeptide analogs as activators of the CLPP endopeptidase” (priority 2015, dated 2019)
Converted amounts (≈) assume the structure as drawn. Read-outs that look alike come from different tables or passages of the source. *1 amine or outer side, *2 acyl side, *3 side chain or, on linkers, in order; H or OH if unused. Where a SMILES comes first, the peptide text is derived from it. Bridges are numbered along the chain shown (N, C = ends). [ ]: non-standard residue; d: D form. The star is where a group is joined. NH(1,3-benzodioxol-5-yl) = c1cc2c(cc1N*)OCO2; Phe(3,5-F2) = N[C@@H](Cc1cc(F)cc(F)c1)C(=O)O; NH(1-Me-indolin-5-yl) = CN1CCc2cc(N*)ccc21; NH(4-OCF3-phenyl) = FC(F)(F)Oc1ccc(N*)cc1; Morpholine(3S-CO) = O=C(O)[C@@H]1COCCN1; Pro(4S-Me) = C[C@@H]1CN[C@H](C(=O)O)C1; NH(4-Cl-2-F-phenyl) = Fc1cc(Cl)ccc1N*; Pro(4R-Me) = C[C@H]1CN[C@H](C(=O)O)C1; NMeaThr = CN[C@H](C(=O)O)[C@H](C)O; Hyp = O=C(O)[C@@H]1C[C@@H](O)CN1; NH(4-Et-phenyl) = CCc1ccc(N*)cc1; NMeT = CN[C@H](C(=O)O)[C@@H](C)O; Heptenoyl(2E) = CCCC/C=C/C(=O)*; aThr = C[C@H](O)[C@H](N)C(=O)O; Pip = O=C(O)[C@@H]1CCCCN1; X6 = Cc1cc(C)cc(N*)c1; CO = O=C([*:1])[*:2]

Experiments:
Sa-ClpP = biological target: T1, Sa-ClpP (Staphylococcus aureus, UniProt Q2G036); experiment: ADEP displacement fluorescence polarization assay (FP probe ADEP 2591); assay type: binding
T1 construct: made in house; host or cells: E. coli BL21(DE3)
T1 sequence (Q2G036 1-195): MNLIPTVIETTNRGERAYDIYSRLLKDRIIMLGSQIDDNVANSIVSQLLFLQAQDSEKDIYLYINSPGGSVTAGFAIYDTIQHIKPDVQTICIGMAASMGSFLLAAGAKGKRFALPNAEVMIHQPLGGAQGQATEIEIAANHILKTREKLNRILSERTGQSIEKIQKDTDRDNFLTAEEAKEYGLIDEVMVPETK
Procedure, shortened: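 Probe displacement was measured in mP after compounds sat 120 min at room temperature with pre-equilibrated (1 h) Sa-ClpP (15 μM) and ADEP 2591 FP probe (50 nM) in pH 8.0 Tris-HCl with 2% DMSO. Data were scaled between DMSO and 200 μM ADEP 2378 and fit by variable-slope log-inhibitor regression.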

[1] = tested on: Enterococcus faecalis, ATCC 33186; experiment: Minimal inhibitory concentration assay (microbroth dilution); assay type: cell-based
Procedure, shortened: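 Compound is serially diluted two-fold in the appropriate broth, and bacterial inoculum at about 10^5 cfu/mL is added so the highest final concentration is 200 μM. Plates stay overnight at 37 °C under aerobic conditions before growth is scored by eye.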

[2] = Enterococcus faecalis, ATCC33186; read-out: Minimal Inhibitory Concentrations E. faecalis ATCC 33186
[3] = displacement of FP probe ADEP 2591 from Sa-ClpP, read-out: ADEP Displacement IC50
[4] = Enterococcus faecalis, ATCC33186, read-out: Minimal Inhibitory Concentrations E. faecalis ATCC 33186

Cc1cc(C)cc(NC(=O)N[C@@H](Cc2cc(F)cc(F)c2)C(=O)N[C@@H]2C(=O)N3CCC[C@H]3C(=O)N3CCCC[C@H]3C(=O)N[C@@H](C)C(=O)N3C[C@H](C)C[C@H]3C(=O)O[C@H]2C)c1 [Compound 304, (S)-3-(3,5-difluorophenyl)-2-(3-(3,5-dimethylphenyl)ureido)-N-((2R,6S,8aS,14aS,20S,21S,23aS)-2,6,21-trimethyl-5,8,14,19,23-pentaoxooctadecahydro-1H,5H,14H,19H-pyrido[2,1-i]dipyrrolo[2,1-c:2′,1′-l][1]oxa[4,7,10,13]tetraazacyclo-hexadecin-20-yl)propanamide] ({X6-CO}-[Phe(3,5-F2)][aThr]P[Pip]A[Pro(4R-Me)]; ester 2-C)
IC50 (Sa-ClpP): 6.52 ± 0.3 µM
MIC [1, 2]: 0.029 µM (≈ 0.0238 µg/mL)

CCCC/C=C/C(=O)N[C@@H](Cc1cc(F)cc(F)c1)C(=O)N[C@@H]1C(=O)N2CCC[C@H]2C(=O)N(C)[C@@H]([C@@H](C)O)C(=O)N[C@@H](C)C(=O)N2C[C@H](C)C[C@H]2C(=O)O[C@H]1C [Compound 308, (E)-N—((S)-3-(3,5-difluorophenyl)-1-(((2R,6S,9S,11aS,17S,18S,20aS)-9-((R)-1-hydroxyethyl)-2,6,10,18-tetramethyl-5,8,11,16,20-pentaoxohexadecahydro-1H,5H,16H-dipyrrolo[2,1-c:2′,1′-l][1]oxa[4,7,10,13]tetraazacyclohexadecin-17-yl)amino)-1-oxopropan-2-yl)hept-2-enamide] ({Heptenoyl(2E)}-[Phe(3,5-F2)][aThr]P[NMeT]A[Pro(4R-Me)]; ester 2-C)
IC50 (Sa-ClpP): 4.4 ± 0.3 µM
MIC [1, 2]: 0.039 µM (≈ 0.0308 µg/mL)

C[C@@H]1C[C@H]2C(=O)O[C@@H](C)[C@H](NC(=O)[C@H](Cc3cc(F)cc(F)c3)NC(=O)Nc3ccc(Cl)cc3F)C(=O)N3C[C@H](O)C[C@H]3C(=O)N3CCOC[C@H]3C(=O)N[C@@H](C)C(=O)N2C1 [Compound 316, (S)-2-(3-(4-chloro-2-fluorophenyl)ureido)-3-(3,5-difluorophenyl)-N-((6aS,8R,12S,13S,15aS,17R,21S,23aS)-8-hydroxy-13,17,21-trimethyl-6,11,15,20,23-pentaoxooctadecahydro-6H,11H,15H-[1,4]oxazino[3,4-i]dipyrrolo[2,1-c:2′,1′-l][1]oxa[4,7,10,13]tetraazacyclo-hexadecin-12-yl)propanamide] ({NH(4-Cl-2-F-phenyl)-CO}-[Phe(3,5-F2)][aThr][Hyp][Morpholine(3S-CO)]A[Pro(4R-Me)]; ester 2-C)
IC50 (Sa-ClpP): 6.9 ± 0.3 µM
MIC [1, 2]: 0.078 µM (≈ 0.0674 µg/mL)

CCc1ccc(NC(=O)N[C@@H](Cc2cc(F)cc(F)c2)C(=O)N[C@@H]2C(=O)N3CCC[C@H]3C(=O)N(C)[C@@H]([C@H](C)O)C(=O)N[C@@H](C)C(=O)N3C[C@@H](C)C[C@H]3C(=O)O[C@H]2C)cc1 [Compound 204, (S)-3-(3,5-difluorophenyl)-2-(3-(4-ethylphenyl)ureido)-N-((2S,6S,9S,11aS,17S,18S,20aS)-9-((S)-1-hydroxyethyl)-2,6,10,18-tetramethyl-5,8,11,16,20-pentaoxohexadecahydro-1H,5H,16H-dipyrrolo[2,1-c:2′,1′-l][1]oxa[4,7,10,13]tetraazacyclohexadecin-17-yl)propanamide] ({NH(4-Et-phenyl)-CO}-[Phe(3,5-F2)][aThr]P[NMeaThr]A[Pro(4S-Me)]; ester 2-C)
IC50 (Sa-ClpP; [3]): 7 ± 0.4 µM
MIC [1, 2]: 0.195 µM (≈ 0.161 µg/mL)

CCc1ccc(NC(=O)N[C@@H](Cc2cc(F)cc(F)c2)C(=O)N[C@@H]2C(=O)N3C[C@H](O)C[C@H]3C(=O)N3CCOC[C@H]3C(=O)N[C@@H](C)C(=O)N3C[C@H](C)C[C@H]3C(=O)O[C@H]2C)cc1 [Compound 320, (S)-3-(3,5-difluorophenyl)-2-(3-(4-ethylphenyl)ureido)-N-((6aS,8R,12S,13S,15aS,17R,21S,23aS)-8-hydroxy-13,17,21-trimethyl-6,11,15,20,23-pentaoxooctadecahydro-6H,11H,15H-[1,4]oxazino[3,4-i]dipyrrolo[2,1-c:2′,1′-l][1]oxa[4,7,10,13]-tetraazacyclohexadecin-12-yl)propanamide] ({NH(4-Et-phenyl)-CO}-[Phe(3,5-F2)][aThr][Hyp][Morpholine(3S-CO)]A[Pro(4R-Me)]; ester 2-C)
IC50 (Sa-ClpP): 7.48 ± 0.6 µM
MIC [1, 2]: 0.078 µM (≈ 0.0655 µg/mL)

C[C@@H]1C[C@H]2C(=O)O[C@@H](C)[C@H](NC(=O)[C@H](Cc3cc(F)cc(F)c3)NC(=O)Nc3ccc4c(c3)CCN4C)C(=O)N3CCC[C@H]3C(=O)N3CCCC[C@H]3C(=O)N[C@@H](C)C(=O)N2C1 [Compound 310, (S)-3-(3,5-difluorophenyl)-2-(3-(1-methylindolin-5-yl)ureido)-N-((2R,6S,8aS,14aS,20S,21S,23aS)-2,6,21-trimethyl-5,8,14,19,23-pentaoxooctadecahydro-1H,5H,14H,19H-pyrido[2,1-i]dipyrrolo[2,1-c:2′,1′-l][1]oxa[4,7,10,13]tetraazacyclo-hexadecin-20-yl)propanamide] ({NH(1-Me-indolin-5-yl)-CO}-[Phe(3,5-F2)][aThr]P[Pip]A[Pro(4R-Me)]; ester 2-C)
IC50 (Sa-ClpP): 6.9 ± 0.3 µM
MIC [1, 4]: 0.313 µM (≈ 0.266 µg/mL)

C[C@H]1C[C@H]2C(=O)O[C@@H](C)[C@H](NC(=O)[C@H](Cc3cc(F)cc(F)c3)NC(=O)Nc3ccc(OC(F)(F)F)cc3)C(=O)N3CCC[C@H]3C(=O)N3CCOC[C@H]3C(=O)N[C@@H](C)C(=O)N2C1 [Compound 201, (S)-3-(3,5-difluorophenyl)-2-(3-(4-(trifluoromethoxy)phenyl)ureido)-N-((6aS,12S,13S,15aS,17S,21S,23aS)-13,17,21-trimethyl-6,11,15,20,23-pentaoxooctadecahydro-6H,11H,15H-[1,4]oxazino[3,4-i]dipyrrolo[2,1-c:2′,1′-l][1]oxa[4,7,10,13]tetraazacyclohexadecin-12-yl)propanamide] ({NH(4-OCF3-phenyl)-CO}-[Phe(3,5-F2)][aThr]P[Morpholine(3S-CO)]A[Pro(4S-Me)]; ester 2-C)
IC50 (Sa-ClpP; [3]): 6.1 ± 0.4 µM
MIC [1, 2]: 0.098 µM (≈ 0.0862 µg/mL)

C[C@@H]1C[C@H]2C(=O)O[C@@H](C)[C@H](NC(=O)[C@H](Cc3cc(F)cc(F)c3)NC(=O)Nc3ccc4c(c3)OCO4)C(=O)N3C[C@H](O)C[C@H]3C(=O)N3CCOC[C@H]3C(=O)N[C@@H](C)C(=O)N2C1 [Compound 319, (S)-2-(3-(benzo[d][1,3]dioxol-5-yl)ureido)-3-(3,5-difluorophenyl)-N-((6aS,8R,12S,13S,15aS,17R,21S,23aS)-8-hydroxy-13,17,21-trimethyl-6,11,15,20,23-pentaoxooctadecahydro-6H,11H,15H-[1,4]oxazino[3,4-i]dipyrrolo[2,1-c:2′,1′-l][1]oxa[4,7,10,13]tetraazacyclo-hexadecin-12-yl)propanamide] ({NH(1,3-benzodioxol-5-yl)-CO}-[Phe(3,5-F2)][aThr][Hyp][Morpholine(3S-CO)]A[Pro(4R-Me)]; ester 2-C)
IC50 (Sa-ClpP): 7.75 ± 0.6 µM
MIC [1, 2]: 0.313 µM (≈ 0.268 µg/mL)

C[C@@H]1C[C@H]2C(=O)O[C@@H](C)[C@H](NC(=O)[C@H](Cc3cc(F)cc(F)c3)NC(=O)Nc3ccc4c(c3)CCN4C)C(=O)N3CCC[C@H]3C(=O)N3CCOC[C@H]3C(=O)N[C@@H](C)C(=O)N2C1 [Compound 312, (S)-3-(3,5-difluorophenyl)-2-(3-(1-methylindolin-5-yl)ureido)-N-((6aS,12S,13S,15aS,17R,21S,23aS)-13,17,21-trimethyl-6,11,15,20,23-pentaoxooctadecahydro-6H,11H,15H-[1,4]oxazino[3,4-i]dipyrrolo[2,1-c:2′,1′-l][1]oxa[4,7,10,13]tetraazacyclo-hexadecin-12-yl)propanamide] ({NH(1-Me-indolin-5-yl)-CO}-[Phe(3,5-F2)][aThr]P[Morpholine(3S-CO)]A[Pro(4R-Me)]; ester 2-C)
IC50 (Sa-ClpP): 6.3 ± 0.4 µM
MIC [1, 4]: 0.039 µM (≈ 0.0332 µg/mL)

C[C@@H]1C[C@H]2C(=O)OC[C@H](NC(=O)[C@H](Cc3ccccc3)NC(=O)Nc3ccc(OC(F)(F)F)cc3)C(=O)N3CCC[C@H]3C(=O)N3CCCC[C@H]3C(=O)N[C@@H](C)C(=O)N2C1 [Compound 205]
IC50 (Sa-ClpP): 21.6 ± 1.4 µM
MIC ([1]; E. faecalis ATCC 33186; read-out: Minimal Inhibitory Concentrations E. faecalis ATCC 33186): 0.02 µM (≈ 0.0166 µg/mL)

C[C@H]1C[C@H]2C(=O)O[C@@H](C)[C@H](NC(=O)[C@H](Cc3cc(F)cc(F)c3)NC(=O)Nc3ccc(OC(F)(F)F)cc3)C(=O)N3CCC[C@H]3C(=O)N(C)[C@@H]([C@H](C)O)C(=O)N[C@@H](C)C(=O)N2C1 [Compound 203, (S)-3-(3,5-difluorophenyl)-N-((2S,6S,9S,11aS,17S,18S,20aS)-9-((S)-1-hydroxyethyl)-2,6,10,18-tetramethyl-5,8,11,16,20-pentaoxohexadecahydro-1H,5H,16H-dipyrrolo[2,1-c:2′,1′-l][1]oxa[4,7,10,13]tetraazacyclohexadecin-17-yl)-2-(3-(4-(trifluoromethoxy)phenyl)ureido)propanamide] ({NH(4-OCF3-phenyl)-CO}-[Phe(3,5-F2)][aThr]P[NMeaThr]A[Pro(4S-Me)]; ester 2-C)
IC50 (Sa-ClpP; [3]): 6.4 ± 0.5 µM
MIC [1, 2]: 0.781 µM (≈ 0.689 µg/mL)
